“And” between values parts separate entries of the source, which are not always exact repeats. Identical values can stand only once. Like-named read-outs stand apart in the source and are kept apart here.

The values below come from patent US20020025298A1, “Use of texaphyrin in ocular diagnosis and therapy” (Pharmacyclics, Inc., priority 1996, published 2002).

The conditions of series [1]: cited from earlier work.
Series [2] relates to rabbit plasma proteins and lipoproteins. Nature of the series: In vivo binding to plasma proteins and lipoproteins, KBr density-gradient ultracentrifugation. Particulars: for binding to plasma elements (in words): rabbit, in vivo. How it is done:
(§1) Plasma Analysis. Rabbits were injected via the ear vein with 1 μmol Lu(III)T2BET/kg and blood was collected at 15 min, 30 min, 3 hr, and 5 hr post administration. EDTA was used as the anticoagulant. Plasma samples (25 μl) were mixed with 10 mM Triton X100 (3 ml) and analyzed by fluorescence. Fluorescence spectra were acquired with a SLM 48000S instrument, excitation was between 450-480 nm and emission monitored from 700-800 nm. In vivo binding of Lu(III)T2BET to rabbit plasma proteins and lipoproteins was assessed using KBr density-gradient ultracentrifugation to fractionate the protein/lipoprotein mixture, followed by fluorescence spectroscopy to determine the relative distribution of Lu(III)T2BET among the low-density lipoproteins (LDL), high-density lipoproteins (HDL), and heavy proteins.

The next series deals with normal NZW rabbits. In words: Fluorescence angiography in normal NZW rabbits with fundoscopy and H&E histology (safety). In kind it is in vivo, rabbit. Particulars: i.v. 1-10 μmol/kg, fluorescein and ICG angiography and H&E histology. Here is the method:
Fluorescence angiography comparing LuT2BET, fluorescein, and ICG was performed on normal NZW rabbits. Normal rabbits (n=4) received an intravenous injection of LuT2BET from 1-10 μmol/kg after intramuscular sedation and pupillary dilatation. Extensive fundoscopy was performed immediately and up to 2 hours post texaphyrin, fluorescein, or ICG administration. […] In further studies, vascular lesions including neovascularization was induced in albino rabbits (NZW) using photocoagulation. PDT using LuT2BET was carried out on the induced lesions. […] Therefore, selective accumulation of Lu(III)T2BET in areas of neovascularization should facilitate diagnosis and photodynamic therapy of age-related macular degeneration and other disorders related to abnormal vasculature.
Dyes. Lutetium texaphyrin, Lu(III)T2BET, was dissolved in 5% mannitol at a concentration of 2 mM. Indocyanine-green (ICG, Cardio-Gree^n®, Becton Dickinson and Company, Cockeysville, Md.) and fluorescein (Alcon Laboratories, Fort Worth, Tex.) fluorescent angiograms were performed at concentrations of 0.31 mg/kg and 7.5 mg/kg, respectively. […]
Photography. Fundus photography and fluorescence angiograms were performed with the TOPCON™50VT camera coupled to the Ophthalmic Imaging System (Ophthalmic Imaging System Inc., Sacramento, Calif.). […] ICG was excited at 790-805 nm and fluorescence detected at 835 nm. […]

Series [3] in a line: Absorption spectrum and fluorescence profile. It counts as physicochemical.
In series [4] the test system is induced vascular lesions of the eye. Nature of the series: Photodynamic therapy of induced vascular lesions of the eye. It counts as in vivo. Particulars: rabbit. How it is done:
Induction of Neovascularization. Photocoagulation bums were introduced in the right macular retina of seven rabbits with an argon dye laser (Coherent Inc., Palo Alto, Calif.). On average, five lesions were induced with 577 nm light using a spot size of 50 μm using enough power (typically 450 mW) to cause bleeding into the retina. The eyes were photographed immediately after photocoagulation. Fluorescein and ICG angiograms were performed 11-15 days after photocoagulation. […] Four control animals, having no induced lesions, were given fluorescence angiograms with the respective dyes.
PDT Protocol. Animals received Lu(III)T2BET, 30 minutes post injection laser light at 488 nm, spot size of 1000 μm, was directed to each lesion via a slitlamp system. Fluorescein angiography was performed throughout the procedure, from prior to until after PDT.
Thirty minutes after injection with LuT2BET, laser light at 488 nm, spot size of 1000 μm, was directed to the lesion via a slitlamp lens system.

The nature of series [5]: Plasma analysis: plasma concentration by fluorescence. It counts as in vivo. Particulars: rabbit, i.v. 1 μmol/kg. Here is the method:
as §1

The conditions of series [6]: cited from earlier work. The source holds these as a separate data set.

Consider `CCOC(=O)C1=Cc2c3nc(cc4nc(cc5[n-]c(cc6[n-]c2c(C)c6CC)c(C)c5CC)C(C)=C4CC)[C@@H](C)[C@]13CC.[Cl-].[Cl-].[Sn]` (racemic) [SnET2, Tin etiopurpurin], for which the “solubility in aqueous solutions” value in series [1] was “insoluble”.
Take `CC1(C)C(/C=C/C=C/C=C/C=C2\N(CCCCS(=O)(=O)O)c3ccc4ccccc4c3C2(C)C)=[N+](CCCCS(=O)(=O)[O-])c2ccc3ccccc3c21` [ICG, indocyanine green, reference compound]: the “binding to plasma elements (in words)” value in series [2] is recorded as “binding mainly to albumin”.
As for `CC(=O)[O-].CC(=O)[O-].CCc1c(CC)c2cc3nc(cnc4cc(OCCOCCOCCOC)c(OCCOCCOCCOC)cc4ncc4nc(cc1[n-]2)C(CCCO)=C4C)C(C)=C3CCCO.O.[Lu+3]` [LuT2BET], the “normal tissue damage after fluorescence angiography” value with normal NZW rabbits is “no evidence of normal tissue damage”. Also, in series [3], the absorption bands is 470 nm and 732 nm; the “fluorescence emission profile centre” value was found to be 750 nm. Further, the “extinction coefficient ε” value in series [3] (at 732 nm) is 32,000 M^−1 cm^−1. In addition, in series [3] (emission centered at 750 nm), the “fluorescence emission FWHM” value is 60 nm. In addition, in series [4], the “damage in control normal choroid or retinal tissue after PDT” value is “no damage was observed” and the “damage to surrounding vessels or tissues after PDT” value is “No damage”. Moreover, in series [4] (488 nm light 30 min after injection, spot size 1000 μm), the “closure of induced lesions after PDT” value was “Closure of induced lesions was observed”. Also, the “fluorescein leakage outside the treated vessel after PDT” value in series [4] (fluorescein angiogram after PDT) is listed as “limited fluorescence leakage outside of the PDT-treated vessel”. In series [2] (rabbit plasma), the “relative in vivo binding, HDL fraction” value is reported as 49%; the “relative in vivo binding, LDL portion” value amounted to 10.5%; the “relative in vivo binding, heavy proteins” value is 40.5%. In series [2], the “binding to plasma elements (in words)” value was “predominantly bound to lipoproteins and to some extent albumin”. This compound also had a concentration in plasma in series [5] (15 min) of 2680 ng/mL. In series [5] (30 min), this compound came in with a concentration in plasma of 1790 ng/mL. For the same compound, in series [5] (3 hr), the concentration in plasma amounted to 180 ng/mL. The compound further displayed a concentration in plasma in series [5] (5 h) of 120 ng/mL.
With `O=C1OC2(c3ccc(O)cc3Oc3cc(O)ccc32)c2ccccc21` [fluorescein, reference compound], the “binding to plasma elements (in words)” value in series [2] is listed as “not bound to plasma elements”.
Consider Benzoporphyrin derivative [BPD], for which the “duration of cutaneous photosensitivity” value in series [6] (in vivo) is listed as “a few days”. In addition, the “solubility in aqueous solutions” value in series [1] is listed as “insoluble”.
Take porfimer sodium: the “duration of cutaneous photosensitivity” value in series [6] (light of 630 nm) is “up to 6 weeks”.
